The target in this assay is Glucagon-like peptide 1 receptor (Homo sapiens, UniProt P43220). The experiment in a line: Activation of human GLP-1 receptor overexpressed in HEK293 cells assessed as cAMP accumulation after 20 mins by HTRF assay.
Sequence of Glucagon-like peptide 1 receptor (P43220 whole entry): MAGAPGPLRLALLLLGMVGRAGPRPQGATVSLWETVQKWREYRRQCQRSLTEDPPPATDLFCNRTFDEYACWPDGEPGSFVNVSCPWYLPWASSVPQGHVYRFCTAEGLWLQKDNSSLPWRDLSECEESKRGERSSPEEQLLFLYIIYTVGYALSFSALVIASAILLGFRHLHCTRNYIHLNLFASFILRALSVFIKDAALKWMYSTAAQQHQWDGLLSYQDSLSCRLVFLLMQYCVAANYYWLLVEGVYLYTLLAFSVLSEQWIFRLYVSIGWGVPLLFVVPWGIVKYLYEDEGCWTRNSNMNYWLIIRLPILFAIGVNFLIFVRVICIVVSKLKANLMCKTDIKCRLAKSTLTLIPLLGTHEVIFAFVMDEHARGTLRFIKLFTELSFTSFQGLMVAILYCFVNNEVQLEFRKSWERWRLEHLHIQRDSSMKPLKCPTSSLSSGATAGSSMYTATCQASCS

As for `CC[C@H](C)[C@H](NC(=O)[C@H](Cc1ccccc1)NC(=O)[C@H](CCC(=O)O)NC(=O)[C@H](CCCCN)NC(=O)[C@H](C)NC(=O)[C@H](C)NC(=O)[C@H](CCC(N)=O)NC(=O)CNC(=O)[C@H](CCC(=O)O)NC(=O)[C@H](CC(C)C)NC(=O)[C@H](Cc1ccc(O)cc1)NC(=O)[C@H](CO)NC(=O)[C@H](CO)NC(=O)[C@@H](NC(=O)[C@H](CC(=O)O)NC(=O)[C@H](CO)NC(=O)[C@@H](NC(=O)[C@H](Cc1ccccc1)NC(=O)[C@@H](NC(=O)CNC(=O)[C@H](CCC(=O)O)NC(=O)CNC(=O)[C@@H](N)Cc1cnc[nH]1)[C@@H](C)O)[C@@H](C)O)C(C)C)C(=O)N[C@@H](C)C(=O)N[C@@H](Cc1c[nH]c2ccccc12)C(=O)N[C@@H](CC(C)C)C(=O)N[C@H](C(=O)N[C@@H](CCCCN)C(=O)NCC(=O)N[C@@H](CCCNC(=N)N)C(=O)N[C@@H](CSC1CC(=O)N(CCCCCC(=O)Nc2ccc(C(c3c(O)c4ccccc4oc3=O)c3c(O)c4ccccc4oc3=O)cc2)C1=O)C(N)=O)C(C)C` (some centres not stated), the concentration giving a half-maximal response (EC50) (commonly the concentration at which the effect is half-maximal) was determined as 3 pM.

Regarding `CC[C@H](C)[C@H](NC(=O)[C@H](Cc1ccccc1)NC(=O)[C@H](CCC(=O)O)NC(=O)[C@H](CS)NC(=O)[C@H](C)NC(=O)[C@H](C)NC(=O)[C@H](CCC(N)=O)NC(=O)CNC(=O)[C@H](CCC(=O)O)NC(=O)[C@H](CC(C)C)NC(=O)[C@H](Cc1ccc(O)cc1)NC(=O)[C@H](CO)NC(=O)[C@H](CO)NC(=O)[C@@H](NC(=O)[C@H](CC(=O)O)NC(=O)[C@H](CO)NC(=O)[C@@H](NC(=O)[C@H](Cc1ccccc1)NC(=O)[C@@H](NC(=O)CNC(=O)[C@H](CCC(=O)O)NC(=O)CNC(=O)[C@@H](N)Cc1cnc[nH]1)[C@@H](C)O)[C@@H](C)O)C(C)C)C(=O)N[C@@H](C)C(=O)N[C@@H](Cc1c[nH]c2ccccc12)C(=O)N[C@@H](CC(C)C)C(=O)N[C@H](C(=O)N[C@@H](CCCCN)C(=O)NCC(=O)N[C@@H](CCCNC(=N)N)C(N)=O)C(C)C`, the EC50 turned out to be 3 pM.
